Data published in the kinase profiling compilation of Christmann-Franck et al. (2016).

Tests used:
Experiment in all cases: KINOMEscan competition binding
Conditions in all cases: compound 1.0 µM
RPS6KA1 KD1 (human) = RPS6KA1 KD1 (human) (UniProt Q15418)
MYO3B (human) = MYO3B (human) (UniProt Q8WXR4)
NUAK2 (human) = NUAK2 (human) (UniProt Q9H093)
PHKG1 (human) = PHKG1 (human) (UniProt Q16816)
RIOK2 (human) = RIOK2 (human) (UniProt Q9BVS4)
EPHB6 (human) = EPHB6 (human) (UniProt O15197)
[1] = test system: RET (human), P07949 [M918T]
MAP3K13 (human) = MAP3K13 (human) (UniProt O43283)
HIPK2 (human) = HIPK2 (human) (UniProt Q9H2X6)
[2] = test system: EGFR (human), P00533 [L858R]
CDC42BPG (human) = CDC42BPG (human) (UniProt Q6DT37)
MINK1 (human) = MINK1 (human) (UniProt Q8N4C8)
NEK2 (human) = NEK2 (human) (UniProt P51955)
DAPK2 (human) = DAPK2 (human) (UniProt Q9UIK4)
MAP2K1 (human) = MAP2K1 (human) (UniProt Q02750)
HUNK (human) = HUNK (human) (UniProt P57058)
MAPK14 (human) = MAPK14 (human) (UniProt Q16539)
LATS1 (human) = LATS1 (human) (UniProt O95835)
PIM3 (human) = PIM3 (human) (UniProt Q86V86)
PKN1 (human) = PKN1 (human) (UniProt Q16512)
MAPK6 (human) = MAPK6 (human) (UniProt Q16659)
RIOK3 (human) = RIOK3 (human) (UniProt O14730)
RPS6KA1 KD2 (human) = RPS6KA1 KD2 (human) (UniProt Q15418)
STK33 (human) = STK33 (human) (UniProt Q9BYT3)
CDKL3 (human) = CDKL3 (human) (UniProt Q8IVW4)
[3] = test system: KIT (human), P10721 [V559D]
RPS6KA5 KD2 (human) = RPS6KA5 KD2 (human) (UniProt O75582)
DCLK1 (human) = DCLK1 (human) (UniProt O15075)
PIP4K2B (human) = PIP4K2B (human) (UniProt P78356)
MAP3K4 (human) = MAP3K4 (human) (UniProt Q9Y6R4)
NEK6 (human) = NEK6 (human) (UniProt Q9HC98)
STK38L (human) = STK38L (human) (UniProt Q9Y2H1)
MYLK4 (human) = MYLK4 (human) (UniProt Q86YV6)
DCLK3 (human) = DCLK3 (human) (UniProt Q9C098)
PAK1 (human) = PAK1 (human) (UniProt Q13153)
TSSK1B (human) = TSSK1B (human) (UniProt Q9BXA7)
KIT (human) = KIT (human) (UniProt P10721)
DMPK (human) = DMPK (human) (UniProt Q09013)
LIMK2 (human) = LIMK2 (human) (UniProt P53671)
FGR (human) = FGR (human) (UniProt P09769)

Measured: inhibition of binding

Chain of NUAK2 (human) (Q9H093 whole entry, looked up): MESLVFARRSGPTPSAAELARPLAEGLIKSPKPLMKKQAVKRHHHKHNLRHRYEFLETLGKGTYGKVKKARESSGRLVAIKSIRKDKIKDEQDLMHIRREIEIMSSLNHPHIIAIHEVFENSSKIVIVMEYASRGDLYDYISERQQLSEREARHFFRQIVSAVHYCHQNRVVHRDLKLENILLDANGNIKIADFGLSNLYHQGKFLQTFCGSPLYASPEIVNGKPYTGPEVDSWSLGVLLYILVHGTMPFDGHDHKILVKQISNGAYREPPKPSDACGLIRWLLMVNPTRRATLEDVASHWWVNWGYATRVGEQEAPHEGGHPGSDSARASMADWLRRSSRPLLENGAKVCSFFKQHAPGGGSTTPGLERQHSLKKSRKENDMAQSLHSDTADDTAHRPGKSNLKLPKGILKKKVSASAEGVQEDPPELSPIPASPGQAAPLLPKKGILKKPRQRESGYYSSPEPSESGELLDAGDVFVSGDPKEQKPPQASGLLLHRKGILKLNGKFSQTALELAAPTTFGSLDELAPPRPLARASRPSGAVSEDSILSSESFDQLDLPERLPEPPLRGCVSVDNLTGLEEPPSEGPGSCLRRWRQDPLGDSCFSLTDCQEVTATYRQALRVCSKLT
Chain of NEK2 (human) (P51955 whole entry, looked up): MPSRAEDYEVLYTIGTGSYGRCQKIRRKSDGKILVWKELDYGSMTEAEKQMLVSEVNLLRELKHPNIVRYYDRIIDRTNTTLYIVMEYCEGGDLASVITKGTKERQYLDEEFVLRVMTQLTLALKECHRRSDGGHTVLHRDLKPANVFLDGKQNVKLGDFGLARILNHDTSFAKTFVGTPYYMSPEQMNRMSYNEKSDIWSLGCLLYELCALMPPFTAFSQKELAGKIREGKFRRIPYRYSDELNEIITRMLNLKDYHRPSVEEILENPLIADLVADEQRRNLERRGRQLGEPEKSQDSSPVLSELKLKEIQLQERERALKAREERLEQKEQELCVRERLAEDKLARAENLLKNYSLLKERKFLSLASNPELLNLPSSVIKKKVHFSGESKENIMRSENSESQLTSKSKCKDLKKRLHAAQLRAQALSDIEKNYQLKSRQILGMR
Chain of HIPK2 (human) (Q9H2X6 whole entry, looked up): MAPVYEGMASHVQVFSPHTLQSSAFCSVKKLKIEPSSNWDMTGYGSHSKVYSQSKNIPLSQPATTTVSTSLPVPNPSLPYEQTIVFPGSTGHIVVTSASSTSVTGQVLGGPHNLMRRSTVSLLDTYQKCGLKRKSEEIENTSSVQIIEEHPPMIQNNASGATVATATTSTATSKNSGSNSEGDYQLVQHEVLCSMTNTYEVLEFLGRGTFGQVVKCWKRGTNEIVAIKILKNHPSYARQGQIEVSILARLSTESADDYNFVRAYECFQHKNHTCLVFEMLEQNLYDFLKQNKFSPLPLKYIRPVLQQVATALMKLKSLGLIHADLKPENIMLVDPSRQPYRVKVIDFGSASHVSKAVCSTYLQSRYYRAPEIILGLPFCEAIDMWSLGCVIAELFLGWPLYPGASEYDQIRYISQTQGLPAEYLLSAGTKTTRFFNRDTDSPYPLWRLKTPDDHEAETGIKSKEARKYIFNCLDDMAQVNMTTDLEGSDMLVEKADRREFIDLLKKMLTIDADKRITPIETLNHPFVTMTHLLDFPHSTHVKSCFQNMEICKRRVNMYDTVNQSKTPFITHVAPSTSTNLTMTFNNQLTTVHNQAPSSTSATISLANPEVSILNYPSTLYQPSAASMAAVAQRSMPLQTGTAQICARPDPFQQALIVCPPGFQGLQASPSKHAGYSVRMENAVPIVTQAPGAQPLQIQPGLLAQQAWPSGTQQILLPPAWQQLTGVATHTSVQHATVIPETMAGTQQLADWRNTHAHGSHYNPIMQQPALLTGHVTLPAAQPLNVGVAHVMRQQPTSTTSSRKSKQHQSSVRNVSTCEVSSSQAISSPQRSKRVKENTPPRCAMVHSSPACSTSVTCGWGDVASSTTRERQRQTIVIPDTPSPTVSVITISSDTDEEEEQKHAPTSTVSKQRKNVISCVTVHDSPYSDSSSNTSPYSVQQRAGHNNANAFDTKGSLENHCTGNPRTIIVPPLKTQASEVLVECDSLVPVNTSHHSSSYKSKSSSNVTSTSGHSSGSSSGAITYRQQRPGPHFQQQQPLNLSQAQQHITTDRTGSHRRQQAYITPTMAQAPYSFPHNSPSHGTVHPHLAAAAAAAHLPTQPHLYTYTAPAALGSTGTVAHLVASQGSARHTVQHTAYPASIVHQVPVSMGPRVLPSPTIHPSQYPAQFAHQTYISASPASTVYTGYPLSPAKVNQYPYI
Chain of TSSK1B (human) (Q9BXA7 whole entry, looked up): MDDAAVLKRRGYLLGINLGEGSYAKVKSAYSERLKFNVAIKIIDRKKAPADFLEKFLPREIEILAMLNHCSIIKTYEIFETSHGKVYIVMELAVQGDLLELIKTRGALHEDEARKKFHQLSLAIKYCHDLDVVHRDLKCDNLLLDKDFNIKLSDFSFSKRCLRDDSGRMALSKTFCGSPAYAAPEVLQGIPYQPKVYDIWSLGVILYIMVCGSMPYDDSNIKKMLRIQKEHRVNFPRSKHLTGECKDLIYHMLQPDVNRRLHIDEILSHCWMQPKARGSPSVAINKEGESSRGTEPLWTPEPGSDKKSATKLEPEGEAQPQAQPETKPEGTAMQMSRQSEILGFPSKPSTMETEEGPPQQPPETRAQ
Chain of MYLK4 (human) (Q86YV6 whole entry, looked up): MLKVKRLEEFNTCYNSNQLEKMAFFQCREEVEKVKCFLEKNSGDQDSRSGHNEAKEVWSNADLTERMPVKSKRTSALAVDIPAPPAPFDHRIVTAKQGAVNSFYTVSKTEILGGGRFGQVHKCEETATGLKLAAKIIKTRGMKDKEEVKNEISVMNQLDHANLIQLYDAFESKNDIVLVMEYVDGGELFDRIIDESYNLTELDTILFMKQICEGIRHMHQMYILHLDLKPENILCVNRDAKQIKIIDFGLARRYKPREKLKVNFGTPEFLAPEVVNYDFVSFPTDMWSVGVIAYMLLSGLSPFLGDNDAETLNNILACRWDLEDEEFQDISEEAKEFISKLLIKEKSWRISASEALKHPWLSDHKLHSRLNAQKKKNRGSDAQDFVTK
Chain of STK38L (human) (Q9Y2H1 whole entry, looked up): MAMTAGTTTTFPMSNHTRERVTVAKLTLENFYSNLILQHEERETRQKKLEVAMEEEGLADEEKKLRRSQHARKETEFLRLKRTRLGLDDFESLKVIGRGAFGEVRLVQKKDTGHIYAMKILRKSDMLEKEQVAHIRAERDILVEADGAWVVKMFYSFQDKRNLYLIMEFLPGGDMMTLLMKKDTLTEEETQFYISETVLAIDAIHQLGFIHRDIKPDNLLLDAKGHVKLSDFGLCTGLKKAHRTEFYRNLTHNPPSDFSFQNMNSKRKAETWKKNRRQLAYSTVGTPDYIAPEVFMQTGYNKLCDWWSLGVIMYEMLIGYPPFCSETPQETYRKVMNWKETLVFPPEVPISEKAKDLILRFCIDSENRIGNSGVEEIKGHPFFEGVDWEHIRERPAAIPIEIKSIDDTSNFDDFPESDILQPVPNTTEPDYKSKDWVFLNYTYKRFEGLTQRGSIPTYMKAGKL
Chain of DCLK3 (human) (Q9C098 whole entry, looked up): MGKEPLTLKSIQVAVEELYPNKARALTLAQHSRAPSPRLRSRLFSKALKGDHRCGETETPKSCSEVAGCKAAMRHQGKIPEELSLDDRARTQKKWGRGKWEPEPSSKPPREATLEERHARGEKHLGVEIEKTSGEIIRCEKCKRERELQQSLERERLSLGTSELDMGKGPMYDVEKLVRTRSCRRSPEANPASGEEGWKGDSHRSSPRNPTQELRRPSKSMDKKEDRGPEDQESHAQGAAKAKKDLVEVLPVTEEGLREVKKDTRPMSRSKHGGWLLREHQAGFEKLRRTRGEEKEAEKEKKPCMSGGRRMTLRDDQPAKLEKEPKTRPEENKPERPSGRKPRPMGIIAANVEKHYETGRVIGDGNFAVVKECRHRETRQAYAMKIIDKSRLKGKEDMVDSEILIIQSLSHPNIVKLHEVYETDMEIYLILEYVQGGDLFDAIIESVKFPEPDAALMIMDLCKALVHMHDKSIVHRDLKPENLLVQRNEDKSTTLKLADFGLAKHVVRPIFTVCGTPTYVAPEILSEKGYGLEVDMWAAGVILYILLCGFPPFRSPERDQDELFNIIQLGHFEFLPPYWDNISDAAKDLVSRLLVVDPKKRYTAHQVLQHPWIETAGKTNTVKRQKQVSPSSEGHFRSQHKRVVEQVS
Chain of PAK1 (human) (Q13153 whole entry, looked up): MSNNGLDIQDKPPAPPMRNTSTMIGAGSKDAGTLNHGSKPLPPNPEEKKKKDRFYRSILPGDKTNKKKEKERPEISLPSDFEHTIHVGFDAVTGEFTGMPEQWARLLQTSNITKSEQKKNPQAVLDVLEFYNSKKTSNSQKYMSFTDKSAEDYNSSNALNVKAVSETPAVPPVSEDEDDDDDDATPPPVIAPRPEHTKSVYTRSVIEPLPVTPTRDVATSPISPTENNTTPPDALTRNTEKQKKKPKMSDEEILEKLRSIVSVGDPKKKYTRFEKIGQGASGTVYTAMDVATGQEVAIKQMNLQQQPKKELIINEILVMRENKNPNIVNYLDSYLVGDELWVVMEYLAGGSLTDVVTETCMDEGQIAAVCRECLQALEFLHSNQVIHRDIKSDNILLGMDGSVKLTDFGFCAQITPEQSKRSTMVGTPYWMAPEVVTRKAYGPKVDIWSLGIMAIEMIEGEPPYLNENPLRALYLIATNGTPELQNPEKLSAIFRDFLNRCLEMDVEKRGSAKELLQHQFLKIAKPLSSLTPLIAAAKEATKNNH

Nc1cc(C(F)(F)F)c(-c2cc(N3CCOCC3)nc(N3CCOCC3)n2)cn1
4%: LATS1 (human) | PAK1 (human)
5%: PIM3 (human) | TSSK1B (human)
1%: MYO3B (human) | MAP3K4 (human)
51%: DCLK3 (human)
23%: RPS6KA1 KD2 (human)
16%: [2]
13%: [1] | DAPK2 (human)
50%: RPS6KA5 KD2 (human)
11%: PHKG1 (human)
18%: HUNK (human)
3%: EPHB6 (human) | STK38L (human)
7%: DCLK1 (human)
0%: all other assays above
